# Data: patent US6413773B1, “Phosphatidylinositol 3-kinase inhibitors as stimulators of endocrine differentiation” (The Regents of the University of California, priority 1998, dated 2002)
# Columns and labels:
# [1] = system: islet hormone gene expression in human fetal ICCs; experiment: Multiprobe ribonuclease protection assay of islet hormone mRNA; format: cell-based; conditions: ICCs 5 d, 100 nM wortmannin or 10 μM Ly294002, FIG. 1
# Text: The use of human fetal tissue for these studies was reviewed and approved by the Institutional Review Board at our university. Human fetal pancreases at 18-24 gestational wk were obtained with appropriate permissions and patient consent through nonprofit organ procurement programs (Advanced Bioscience Resources, Oakland, Calif.; Anatomic Gift Foundation, Laurel, Md.). Experiments were started by the enzymatic digestion with collagenase P (Boehringer Mannheim Corp., Indianapolis, Ind.) of the human fetal pancreases followed by tissue culture for 5 d, which led to the formation in vitro of ICCs, as previously described in detail (Otonkoski et al. (1993) J. Clin. Invest. 92:1459-1466). […] Transcriptional analyses on total RNA ([…]) were performed using a multiprobe ribonuclease protection assay, as previously described (Otonkoski et al. (1993) J. Clin. Invest. 92:1459-1466). The housekeeping gene cyclophilin was used as an internal control, and yeast tRNA (10 μM) was included as a negative control. Probes used were of human origin and were described previously (Otonkoski et al. (1993) J. Clin. Invest. 92:1459-1466). Target RNAs were quantitated in autoradiographs by scanning densitometry (LKB UltroScan XL Laser) and integrated using Gel Scan XL software (Pharmacia LKB Biotechnology, Inc., Piscataway, N.J.). The probe-specific mRNA signals were normalized to the cyclophilin signal in each sample to account for differences in sample loading between lanes.
# human fetal ICCs [2] = experiment: [3H]thymidine incorporation into DNA; format: cell-based; conditions: ICCs 5 d with inhibitor, FIG. 4A
# Procedure: After incubation with various factors in culture, the ICCs were harvested, and measurements of insulin content, insulin release in response to glucose plus theophylline, and [^3H]thymidine incorporation into DNA were performed as described previously (Otonkoski et al. (1993) J. Clin. Invest. 92:1459-1466).
# [3] = system: fetal pancreatic cells growing as islet-like cell clusters; experiment: Cytotoxicity and apoptosis in culture
# human fetal ICCs [4] = experiment: Triple immunofluorescence, confocal microscopy and morphometric analysis; format: cell-based
# Procedure: ICCs cultured for 5 d in either control medium or medium containing 10 μM Ly 294002 were paraffin embedded, and […] sections were stained for hormone immunoreactivity. To simultaneously identify cells producing insulin, glucagon, somatostatin, and pancreatic polypeptide (pp), we followed a modification of our previous protocol for multiple labeling (Otonkoski et al. (1996) J. Clin. Invest. 79:351-358). Briefly, sections were incubated for 1 h at room temperature with a mixture of primary antibodies: IgG fraction of a sheep anti-human insulin antiserum (The Binding Site, Birmingham, England) ([…]), mouse monoclonal anti-human glucagon (Sigma Chemical Co.) (1 mg/ml), rabbit anti-human somatostatin antiserum (Dako Corporation, Carpinteria, Calif.) (used at 1:100 dilution), and rabbit anti-human pp antiserum (Chemicon International, Inc., Temecula, Calif.) (used at 1:100 dilution). In separate sections, a mixture of normal sheep, rabbit, and mouse IgGs was used as control reference for specificity of primary antibodies. After washings in PBSDS (5 mM glycine, 0.2% donkey serum, 0.1% BSA), sections were incubated for 1 h at room temperature with a cocktail of F(ab′)2 fractions from secondary antibodies: lissamine-rhodamine-conjugated affinity-purified donkey anti-sheep IgGs ([…]); FITC-conjugated affinity-purified donkey anti-rabbit IgGs ([…]); and indodicarbocyanine-conjugated affinity-purified donkey anti-mouse IgGs ([…]). All F(ab′)2 were preadsorbed on appropriate multiple species to eliminate the possibility of crossreactivity in multiple labeling protocols (Jackson ImmunoResearch Labs, Inc., West Grove, Pa.). The sections were processed as previously described (Otonkoski et al. (1996) J. Clin. Invest. 79:351-358) and viewed on a laser scanning confocal microscope (model MRC1024; BioRad Laboratories, Hercules, Calif.).
# Sections were prepared from control and Ly294002 treated ICCs from three independent experiments. […] All images collected (one image per section) were then analyzed for total surface area and insulin, glucagon, somatostatin, and positive cell surface area by using measurement tools in the software NIH Image 1.60 (National Institutes of Health, Bethesda, Md.). Data were analyzed in Stat View 4.01 (Abacus Concepts, Inc., Berkeley, Calif.) for calculation of mean, standard deviation, and parametric statistic (t test).
# PIP3 = experiment: Determination of total cellular PIP3 in [32P]orthophosphate-labeled ICCs; format: cell-based, human
# Procedure: The ICCs, which were pretreated for 5 d with PI3K inhibitors, NIC, HGF/SF, or control buffer, were subsequently harvested and suspended at a concentration of 2 3 10 5 cells/ml in buffer A (30 mM Hepes, pH 7.2, 110 mM NaCl, 10 mM KCl, 1 mM MgCl2, 10 mM glucose), and 1 mCi/ml [^32P]orthophosphate ([…]; DuPont/NEN) was added. The cells were incubated at 37° C. for 2 h and then washed 3× with buffer A. Depending on the type of experiment, the labeled islet cells were either directly lysed by addition of 3 ml chloroform/methanol (1:2, vol/vol), followed by 4 ml chloroform/2.4 M HCl (1: 1, vol/vol) (to measure basal levels of PIP3 ), or labeled cells were first stimulated with 25 ng/ml HGF/SF for the indicated times, and subsequently the reaction was stopped as above (to measure the inducible levels of PIP3 ). Phospholipids were extracted and analyzed by thinlayer chromatography, and the total cellular PIP3 was quantified, as we described previously in detail (Ptasznik et al. (1996) J. Biol. Chem. 271 :25204-25207).
# [5] = tissue culture medium; cited from earlier work
# human fetal ICCs [6] = experiment: Insulin content and insulin release of ICCs; format: cell-based
# Text: The use of human fetal tissue for these studies was reviewed and approved by the Institutional Review Board at our university. Human fetal pancreases at 18-24 gestational wk were obtained with appropriate permissions and patient consent through nonprofit organ procurement programs (Advanced Bioscience Resources, Oakland, Calif.; Anatomic Gift Foundation, Laurel, Md.). Experiments were started by the enzymatic digestion with collagenase P (Boehringer Mannheim Corp., Indianapolis, Ind.) of the human fetal pancreases followed by tissue culture for 5 d, which led to the formation in vitro of ICCs, as previously described in detail (Otonkoski et al. (1993) J. Clin. Invest. 92:1459-1466). […] After incubation with various factors in culture, the ICCs were harvested, and measurements of insulin content, insulin release in response to glucose plus theophylline, and [^3H]thymidine incorporation into DNA were performed as described previously (Otonkoski et al. (1993) J. Clin. Invest. 92:1459-1466).
# PI3K [7] = experiment: PI3K assay on immunoprecipitates from treated fetal ICCs; format: cell-based, human; conditions: for control PI3K activity eliminated, p85 immunoprecipitates: 100 nM wortmannin or 10 μM Ly294002, 5 d
# Text: The use of human fetal tissue for these studies was reviewed and approved by the Institutional Review Board at our university. Human fetal pancreases at 18-24 gestational wk were obtained with appropriate permissions and patient consent through nonprofit organ procurement programs (Advanced Bioscience Resources, Oakland, Calif.; Anatomic Gift Foundation, Laurel, Md.). Experiments were started by the enzymatic digestion with collagenase P (Boehringer Mannheim Corp., Indianapolis, Ind.) of the human fetal pancreases followed by tissue culture for 5 d, which led to the formation in vitro of ICCs, as previously described in detail (Otonkoski et al. (1993) J. Clin. Invest. 92:1459-1466).
# PI3K inhibitors, NIC, or HGF/SF were added to the culture medium from the very beginning. Medium plus factor was changed every day for 5 d. For direct comparison, portions of the same pancreases were grown, treated with factors, and used for transcriptional analyses, insulin content and secretion, PI3K activities, and DNA synthesis.
# (§1) Aliquots of cell lysates normalized for protein content were incubated for 3 h with antiPI3K antibodies directed against the 85kD regulatory subunit or with antiphosphotyrosine antibodies (Upstate Biotechnology, Inc., Lake Placid, N.Y.). The immune complexes were absorbed onto protein A-Sepharose and washed as described (Ptasznik et al. (1995) J. Biol. Chem. 270:19969-19973). PI3K assays were performed directly on beads. Briefly, the reaction was carried out for 10 min in a buffer containing 40 mM Hepes, pH 7.2, 6 mM MgCl2, 1 mM EDTA, […] (Avanti Polar Lipids, Alabaster, Ala.), […], and 10 mCi [γ^32P]ATP (6,000 Ci/mmol; DuPont/NEN, Wilmington, Del.). Adenosine (0.2 mM) was added to the reaction mixture to inhibit residual PI 4 kinase activity. After the incubation, the reaction was stopped with methanol plus 2.4 N HCl (1:1, vol/vol), and lipids were extracted, analyzed by thin-layer chromatography, and quantified as described previously (Ptasznik et al. (1995) J. Biol. Chem. 270:19969-19973). In some experiments, the direct binding of PI3K to p190Met after HGF/SF stimulation of islet cells was determined, as previously described in detail (Graziani, et al. (1991) J. Biol. Chem. 266:22087-22090).
# PI3K [8] = experiment: Direct effect on PI3K activity in vitro in p85 immunoprecipitates; format: biochemical, human; conditions: various concentrations of NIC
# Procedure: as §1
# purified fetal islets = experiment: Endocrine function in purified fetal islets; format: cell-based, human
# Procedure: Effects of PI3K inhibitors on endocrine function were tested not only in ICCs, but also in purified islets. Undifferentiated epithelial cells account for z75-80% of the total cell mass in ICCs. By contrast, purified fetal islets contain about 10 fold fewer undifferentiated epithelial cells (Beattie et al. (1996) Diabetes. 46:244-248). Purification of human fetal pancreatic islets was performed as recently described (Beattie et al. (1996) Diabetes. 46:244-248). Fetal islets, identified as homogeneous differentiated clusters of dithizonepositive cells, were incubated with factors as above.
# p85 protein = experiment: Western blotting of p85 protein; format: cell-based, human; conditions: during NIC treatment
# [9] = system: islet hormone gene expression in human fetal ICCs; conditions: earlier publications; cited from earlier work
compound,measurement,setting,value
"O=c1cc(N2CCOCC2)oc2c(-c3ccccc3)cccc12 [Ly294002, 2-(4-Morpholinyl)-8-phenyl-4 H-1-benzopyran-4-one]",transcriptional level of glucagon,[1],increased
same,transcriptional level of insulin,[1],increased
same,transcriptional level of somatostatin,[1],increased
same,[3H]thymidine incorporation into DNA,human fetal ICCs [2],significantly decreased
same,cytotoxicity (general statement),[3],no significant cytotoxicity
same,increase in the total percentage of endocrine-positive cells versus control ICCs,"human fetal ICCs [4]; 10 μM Ly294002, 5 d",4.4 fold
same,frequency of cells coexpressing multiple hormones,"human fetal ICCs [4]; 10 μM Ly294002, 5 d, FIG. 3",increased
same,total endocrine cell surface area,"human fetal ICCs [4]; 10 μM Ly294002, 5 d, FIG. 3",significantly increased
same,"endocrine surface area for all hormones (insulin; somatostatin and pp; glucagon), percent of total ICC surface area","human fetal ICCs [4]; 10 μM Ly294002, 5 d, FIG. 3, n=3",significantly increased
same,number of hormone producing cells growing in ICCs,human fetal ICCs [4]; blockade of PI3K activity in culture,significantly increased
same,rise in PIP3 formation stimulated by growth factors,"PIP3; 100 nM wortmannin or 10 μM Ly294002, intact labeled islet cells",almost completely inhibited
same,stability in culture medium,[5],very stable
same,insulin content per cellular DNA versus untreated control,"human fetal ICCs [6]; ICCs cultured 5 d with inhibitor, FIG. 2A",significantly increased
same,insulin secretion per cellular DNA versus untreated control,"human fetal ICCs [6]; ICCs cultured 5 d with inhibitor, glucose plus theophylline, FIG. 2B",significantly increased
same,"control PI3K activity eliminated, p85 immunoprecipitates",PI3K [7]; FIG. 7,90%
"NC(=O)c1cccnc1 [NIC, nicotinamide]",direct inhibitory effect on PI3K activity in vitro,PI3K [8],not a direct inhibitor
same,effect on endocrine function in purified fetal islets,purified fetal islets,no effect
same,basal level of PIP3 versus control cells,"PIP3; 10 mM NIC, 5 d, FIG. 6",significantly lower
same,actual level of p85 protein,p85 protein,no change
same,insulin and glucagon gene transcription and insulin protein biosynthesis,[9],an increase
same,"amount of PI3K activity in p85 immunoprecipitates, lower than untreated cells","PI3K [7]; 10 mM NIC, 5 d, FIG. 7",about fivefold
same,inducibility of cellular PI3K activity by growth factors and de novo formation of PIP3,PI3K [7]; NIC-treated cells,significantly reduced
CO[C@@]12[C@H](COC(N)=O)C3=C(C(=O)C(C)=C(N)C3=O)N1C[C@@H]1N[C@@H]12 [mitomycin C],insulin protein expression,"human fetal ICCs [6]; 2 mg/ml mitomycin C for 5 d, FIG. 4B",does not affect
same,basal PI3K activity in fetal islet cells significantly affected,PI3K [7]; mitomycin C-treated cells,neither
COC[C@H]1OC(=O)c2coc3c2[C@@]1(C)C1=C(C3=O)[C@@H]2CCC(=O)[C@@]2(C)C[C@H]1OC(C)=O [wortmannin],cytotoxicity and apoptosis,"[3]; continuous treatment 5 d, 100 nM wortmannin, 10 μM Ly294002",does not cause notable cytotoxity nor induce apoptosis
same,stability in culture medium,[5],much less stable
same,"control PI3K activity eliminated, p85 immunoprecipitates",PI3K [7]; FIG. 7,90%
hepatocyte growth factor/scatter factor [HGF/SF],increase in levels of PIP3,"PIP3; ICCs growing continuously (5 d) with 25 ng/ml HGF/SF, FIG. 6",threefold
same,insulin and glucagon gene transcription and insulin protein biosynthesis,[9],marked down-regulation
same,cellular PI3K activity after acute stimulation,"PI3K [7]; 25 ng/ml HGF/SF, ICCs starved 24 h, antiphosphotyrosine immunoprecipitates, FIG. 5",robustly activated
